For 10 molecules, IC50 results are on record in patent US12492188B2, “1H-benzo[D]imidazole derivatives as TLR9 inhibitors for the treatment of fibrosis” (BRISTOL-MYERS SQUIBB COMPANY, priority 2020, dated 2025).

Where two headings read alike, the source gives them in different places. Bounds are passed on as bounds.

Common to all, as to assay type: cell-based
One experiment has as its target T1, human TLR8 (Homo sapiens, UniProt Q9NR97).
T1 construct: host or cells: HEK-Blue cells (HEK293-derived reporter line)
T1 sequence (Q9NR97 27-1041): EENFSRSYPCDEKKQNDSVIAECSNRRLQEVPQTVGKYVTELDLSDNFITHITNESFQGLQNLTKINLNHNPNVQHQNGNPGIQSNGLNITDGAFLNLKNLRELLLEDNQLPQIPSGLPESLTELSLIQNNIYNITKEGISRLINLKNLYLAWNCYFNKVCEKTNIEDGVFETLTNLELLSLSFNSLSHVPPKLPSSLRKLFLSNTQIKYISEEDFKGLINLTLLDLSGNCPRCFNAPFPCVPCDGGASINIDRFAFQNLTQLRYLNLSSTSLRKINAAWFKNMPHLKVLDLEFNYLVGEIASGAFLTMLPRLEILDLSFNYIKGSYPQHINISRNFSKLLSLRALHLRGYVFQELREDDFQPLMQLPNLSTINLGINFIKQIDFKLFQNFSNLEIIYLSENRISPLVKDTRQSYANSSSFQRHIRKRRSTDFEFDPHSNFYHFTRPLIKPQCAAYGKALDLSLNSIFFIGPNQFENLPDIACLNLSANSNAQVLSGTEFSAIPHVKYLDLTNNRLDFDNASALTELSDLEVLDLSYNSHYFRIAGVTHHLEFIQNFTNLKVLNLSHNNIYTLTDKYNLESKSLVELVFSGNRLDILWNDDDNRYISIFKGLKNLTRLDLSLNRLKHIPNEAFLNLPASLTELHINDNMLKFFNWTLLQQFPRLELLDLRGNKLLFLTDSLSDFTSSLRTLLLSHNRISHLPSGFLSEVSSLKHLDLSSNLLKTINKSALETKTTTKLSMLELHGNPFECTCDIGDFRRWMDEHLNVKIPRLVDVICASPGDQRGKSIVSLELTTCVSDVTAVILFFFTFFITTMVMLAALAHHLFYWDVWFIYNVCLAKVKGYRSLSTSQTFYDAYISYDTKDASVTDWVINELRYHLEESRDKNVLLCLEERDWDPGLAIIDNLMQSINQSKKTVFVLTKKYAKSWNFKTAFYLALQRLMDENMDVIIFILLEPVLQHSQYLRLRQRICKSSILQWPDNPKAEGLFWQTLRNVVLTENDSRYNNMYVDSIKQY
Nature of the experiment: TLR8 inhibition reporter assay (HEK-Blue cells, secreted embryonic alkaline phosphatase reporter). Particulars: HEK-Blue cells overexpressing human TLR8, stimulated with R848 15.9 μM; read-out: TLR 8 IC50. The method, boiled down:
(§1)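 HEK-Blue cells expressing human TLR7, TLR8 or TLR9 with an NF-κB/AP-1-driven SEAP reporter were pretreated with compound (0.05 nM–50 μM final) for 30 min at room temperature. Agonists were gardiquimod 7.5 μM for TLR7, R848 15.9 μM for TLR8 and ODN2006 5 nM for TLR9. SEAP was read after 22 h at 37 °C, and inhibition was calculated relative to agonist-plus-DMSO and known-inhibitor controls.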

A further experiment concerns the target T2, human TLR9 (Homo sapiens, UniProt Q9NR96).
T2 construct: host or cells: HEK-Blue cells (HEK293-derived reporter line)
T2 sequence (Q9NR96 26-1032): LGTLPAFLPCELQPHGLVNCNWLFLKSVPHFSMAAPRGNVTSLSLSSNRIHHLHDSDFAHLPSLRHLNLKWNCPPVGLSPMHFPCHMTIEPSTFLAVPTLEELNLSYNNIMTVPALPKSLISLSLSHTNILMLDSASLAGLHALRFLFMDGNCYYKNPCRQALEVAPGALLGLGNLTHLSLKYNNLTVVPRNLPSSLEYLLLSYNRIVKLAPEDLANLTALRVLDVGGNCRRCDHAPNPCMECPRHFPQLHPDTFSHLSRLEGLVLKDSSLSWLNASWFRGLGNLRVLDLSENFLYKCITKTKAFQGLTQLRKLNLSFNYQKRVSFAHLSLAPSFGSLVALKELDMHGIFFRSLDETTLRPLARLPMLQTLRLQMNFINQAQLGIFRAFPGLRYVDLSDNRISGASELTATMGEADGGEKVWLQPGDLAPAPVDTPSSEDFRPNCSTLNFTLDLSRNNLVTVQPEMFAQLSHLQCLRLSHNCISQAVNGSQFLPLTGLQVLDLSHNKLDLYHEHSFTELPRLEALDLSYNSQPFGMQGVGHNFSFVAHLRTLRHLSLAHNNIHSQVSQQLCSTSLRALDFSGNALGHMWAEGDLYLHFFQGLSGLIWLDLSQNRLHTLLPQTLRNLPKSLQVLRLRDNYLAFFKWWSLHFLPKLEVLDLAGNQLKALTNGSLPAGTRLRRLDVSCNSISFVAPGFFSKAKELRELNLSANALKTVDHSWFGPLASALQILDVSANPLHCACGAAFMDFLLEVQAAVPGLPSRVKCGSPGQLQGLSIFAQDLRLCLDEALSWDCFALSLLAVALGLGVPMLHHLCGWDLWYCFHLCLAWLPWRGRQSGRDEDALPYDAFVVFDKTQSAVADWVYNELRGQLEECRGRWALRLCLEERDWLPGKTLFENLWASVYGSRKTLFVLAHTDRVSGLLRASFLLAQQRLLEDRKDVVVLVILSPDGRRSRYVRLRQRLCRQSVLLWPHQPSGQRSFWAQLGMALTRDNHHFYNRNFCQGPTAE
Nature of the experiment: TLR9 inhibition reporter assay (HEK-Blue cells, secreted embryonic alkaline phosphatase reporter). The method, boiled down:
as §1
On the technique in general: In a reporter assay the amount or activity of a reporter protein is the signal.

The target of the next experiment is T3, human TLR7 (Homo sapiens, UniProt Q9NYK1).
T3 construct: host or cells: HEK-Blue cells (HEK293-derived reporter line)
T3 sequence (Q9NYK1 27-1049): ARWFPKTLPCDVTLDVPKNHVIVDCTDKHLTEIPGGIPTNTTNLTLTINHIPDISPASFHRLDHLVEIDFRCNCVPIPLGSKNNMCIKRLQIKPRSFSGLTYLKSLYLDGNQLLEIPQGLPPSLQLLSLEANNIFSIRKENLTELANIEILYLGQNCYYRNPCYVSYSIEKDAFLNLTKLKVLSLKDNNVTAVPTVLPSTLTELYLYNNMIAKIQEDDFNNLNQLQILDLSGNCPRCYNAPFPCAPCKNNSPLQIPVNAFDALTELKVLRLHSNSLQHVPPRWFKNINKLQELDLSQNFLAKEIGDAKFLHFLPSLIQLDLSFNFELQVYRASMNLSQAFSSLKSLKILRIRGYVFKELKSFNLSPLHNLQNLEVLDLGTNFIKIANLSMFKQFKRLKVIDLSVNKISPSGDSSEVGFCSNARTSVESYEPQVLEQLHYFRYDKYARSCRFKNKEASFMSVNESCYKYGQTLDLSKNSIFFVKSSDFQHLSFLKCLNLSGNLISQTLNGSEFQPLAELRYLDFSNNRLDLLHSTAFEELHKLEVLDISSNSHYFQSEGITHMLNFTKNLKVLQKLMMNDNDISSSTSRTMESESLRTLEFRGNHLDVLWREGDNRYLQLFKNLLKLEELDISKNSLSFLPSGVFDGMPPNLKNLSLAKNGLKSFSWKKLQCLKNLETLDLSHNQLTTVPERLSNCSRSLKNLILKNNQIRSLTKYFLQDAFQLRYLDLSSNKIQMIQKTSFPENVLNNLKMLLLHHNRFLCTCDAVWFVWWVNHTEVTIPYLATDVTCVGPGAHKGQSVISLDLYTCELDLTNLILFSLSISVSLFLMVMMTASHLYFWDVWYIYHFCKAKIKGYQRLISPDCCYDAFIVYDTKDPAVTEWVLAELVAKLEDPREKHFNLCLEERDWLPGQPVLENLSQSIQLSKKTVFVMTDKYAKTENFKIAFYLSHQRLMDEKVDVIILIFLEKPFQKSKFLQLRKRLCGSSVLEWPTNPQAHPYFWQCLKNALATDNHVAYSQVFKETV
Nature of the experiment: TLR7 inhibition reporter assay (HEK-Blue cells, secreted embryonic alkaline phosphatase reporter). Particulars: HEK-Blue cells overexpressing human TLR7, stimulated with gardiquimod 7.5 μM; read-out: TLR 7 IC50. A digest of the protocol: as §1

The mark [1] stands for this setting: HEK-Blue cells overexpressing human TLR9, stimulated with ODN2006 5 nM, 22 hour incubation, reporter readout.
Setting [2] is: HEK-Blue cells overexpressing human TLR9, stimulated with ODN2006 5 nM, read-out: TLR 9 IC50.

One may read the IC50 as the midpoint of a concentration-inhibition curve.

With `CC(C)N1C2CCC1CC(N1CCC(c3cc(F)c4c(c3)nc(-c3ccc(S(C)(=O)=O)cc3)n4C)CC1)C2` (single isomer, unassigned) [Example 93, 7-fluoro-5-(1-(8-isopropyl-8-azabicyclo[3.2.1]octan-3-yl)piperidin-4-yl)-1-methyl-2-(4-(methylsulfonyl)phenyl)-1H-benzo[d]imidazole], the IC50 is over 50 µM on human TLR8, 0.65 µM against human TLR9 (setting [1]) and over 50 µM on human TLR7.
For `Cn1c(-c2ccc(S(C)(=O)=O)cc2)nc2cc(F)c(C3CCN(C4CC5CCC(C4)N5C4CCC4)CC3)cc21` (stereo not shown) [Example 233, 6-(1-(8-cyclobutyl-8-azabicyclo[3.2.1]octan-3-yl)piperidin-4-yl)-5-fluoro-1-methyl-2-(4-(methylsulfonyl)phenyl)-1H-benzo[d]imidazole], the IC50 at human TLR8 is over 50 µM; against human TLR9, 0.058 µM; on human TLR9 (setting [2]), 0.058 µM; at human TLR7 it was 29 µM.
Take `COc1ccc(-c2nc3c(C)cc(C4CCN(C5CCN(C(C)C)CC5)CC4)cc3[nH]2)cc1F` [Example 24, 2-(3-fluoro-4-methoxyphenyl)-6-(1′-isopropyl-[1,4′-bipiperidin]-4-yl)-4-methyl-1H-benzo[d]imidazole]: the figures for the half-inhibitory concentration (IC50) on human TLR8, against human TLR9 (setting [1]) and at human TLR7 were over 50 µM, 0.048 µM and 3 µM, respectively.
`Cn1c(-c2ccc(S(C)(=O)=O)cc2)nc2c(F)c(C3CCN(C4CC5CCC(C4)N5C4COC4)CC3)ccc21` (stereo not shown) [Example 195, 4-fluoro-1-methyl-2-(4-(methylsulfonyl)phenyl)-5-(1-(8-(oxetan-3-yl)-8-azabicyclo[3.2.1]octan-3-yl)piperidin-4-yl)-1H-benzo[d]imidazole]: the half-inhibitory concentration (IC50) at human TLR8 was over 50 µM; against human TLR9 it was 0.49 µM; at human TLR9 (setting [2]), 0.49 µM; at human TLR7 it was over 50 µM.
Consider `COc1ccc(-c2nc3cc(C4CCN(C5CCN(C6CC6)CC5)CC4)ccc3n2CC(F)F)cc1OC` [Example 39, 5-(1′-cyclopropyl-[1,4′-bipiperidin]-4-yl)-1-(2,2-difluoroethyl)-2-(3,4-dimethoxyphenyl)-1H-benzo[d]imidazole], for which the IC50 is 30 µM on human TLR8, 0.59 µM against human TLR9 (setting [1]), 0.59 µM at human TLR9 (setting [2]) and 6.4 µM on human TLR7.
On to `Cn1c(-c2ccc(S(C)(=O)=O)cc2)nc2c(F)c(C3CCN(C4CC5CCC(C4)N5C4CCOCC4)CC3)ccc21` (stereo not shown) [Example 198, 4-fluoro-1-methyl-2-(4-(methylsulfonyl)phenyl)-5-(1-(8-(tetrahydro-2H-pyran-4-yl)-8-azabicyclo[3.2.1]octan-3-yl)piperidin-4-yl)-1H-benzo[d]imidazole], for which the IC50 is over 50 µM on human TLR8, 0.057 µM on human TLR9, 0.057 µM at human TLR9 (setting [2]) and over 50 µM on human TLR7.
Take `Cc1cc(C2CCN(C3CCN(CC4CC4)CC3)CC2)cc2c1nc(-c1ccc(S(C)(=O)=O)c(F)c1)n2C` [Example 338, 6-(1′-(cyclopropylmethyl)-[1,4′-bipiperidin]-4-yl)-2-(3-fluoro-4-(methylsulfonyl)phenyl)-1,4-dimethyl-1H-benzo[d]imidazole]: the IC50 is over 50 µM at human TLR8, 0.258 µM at human TLR9 (setting [2]), 0.26 µM on human TLR9 (HEK-Blue human TLR9 reporter cells) and 3.8 µM on human TLR7.
With `COc1ccc(-c2nc3ccc(C4CCN(C5CCN(C(C)C)CC5)CC4)cc3n2C)cc1OC` [Example 1, 2-(3,4-dimethoxyphenyl)-6-(1′-isopropyl-[1,4′-bipiperidin]-4-yl)-1-methyl-1H-benzo[d]imidazole], the IC50 is 1.1 µM at human TLR8, 0.056 µM at human TLR9 (setting [1]) and 5.9 µM on human TLR7.
Turning to `Cc1cc(C2CCN(C3CCN(C4CC4)CC3)CC2)cc2c1nc(-c1ccc(S(C)(=O)=O)cc1)n2C` [Example 53, 6-(1′-cyclopropyl-[1,4′-bipiperidin]-4-yl)-1,4-dimethyl-2-(4-(methylsulfonyl)phenyl)-1H-benzo[d]imidazole], the 50% inhibitory concentration (IC50) at human TLR8 was over 50 µM; at human TLR9 (setting [1]), 0.42 µM; on human TLR9 (setting [2]), 0.421 µM; on human TLR7 it was 24 µM.
With `Cn1c(-c2ccc(S(C)(=O)=O)cc2)nc2c(F)c(C3CCN(C4CCN(C5CCOCC5)CC4)CC3)ccc21` [Example 187, 4-fluoro-1-methyl-2-(4-(methylsulfonyl)phenyl)-5-(1′-(tetrahydro-2H-pyran-4-yl)-[1,4′-bipiperidin]-4-yl)-1H-benzo[d]imidazole], the IC50 is over 50 µM at human TLR8, 0.52 µM against human TLR9, 0.523 µM at human TLR9 (setting [2]) and over 50 µM on human TLR7.
